Reference: US11771086B2, “Pest control composition including novel iminopyridine derivative” (priority 2012, dated 2023)

Experiments:
Assay type in all cases: in vivo
[1] = test system: Plutella xylostella; experiment: Reference Test Example 1 Pest control test of Plutella xylostella (foliar treatment, single agent); design: Plutella xylostella (Reference Test Example 1), mortality of larvae: concentration or dose not given beside the values; conditions: foliar treatment, single agent
Text: After an air drying process, second instar larvae were released thereto. […] Test in duplicate.

[2] = test system: Aphis gossypii; experiment: Reference Test Example 3 Pest control test of Aphis gossypii (foliar treatment, single agent); design: Aphis gossypii (Reference Test Example 3), mortality of larvae: concentration or dose not given beside the values; conditions: foliar treatment, single agent
[3] = test system: Laodelphax striatella; experiment: Reference Test Example 18 Pest control test of Laodelphax striatella (wheat seedling root treatment); conditions: wheat seedling roots treated; four days after release; 20 μg/seedling
Description: The drug was absorbed from the roots for 72 hours, and then ten second instar larvae of Laodelphax striatella were each released thereto. […] The test was performed in duplicate.

SMILES | Plutella xylostella (Reference Test Example 1), mortality of larvae [1] [%] | Aphis gossypii (Reference Test Example 3), mortality of larvae [2] [%] | Laodelphax striatella (Reference Test Example 18), mortality of larvae [3] [%]
FC(F)C(=S)N=c1ccccn1Cc1ccc(Cl)nc1 [Compound 1-21] | 80 | 100 | 100
FC(F)(Cl)C(=S)N=c1ccccn1Cc1ccc(Cl)nc1 [Compound 1-22] | 100 |  | 100
FC(F)(F)C(F)(F)C(=S)N=c1ccccn1Cc1ccc(Cl)nc1 [Compound 1-23] | 100 |  | 100
C/N=C(/N=c1\ccccn1Cc1ccc(Cl)nc1)C(F)(F)F [Compound 1-42, N-[1-((6-chloropyridin-3-yl)methyl)pyridin-2(1H)-ylidene]-2,2,2-trifluoro-N′-methylacetimidamide] | 100 | 100 | 100
CSCCN=C(N=c1ccccn1Cc1ccc(Cl)nc1)C(F)(F)F [Compound 1-150] | 100 | 100 | 80
O=C(/N=c1\ccccn1Cc1ccc(F)nc1)C(F)F [Compound 3-3, 2,2-difluoro-N-[1-((6-fluoropyridin-3-yl)methyl)pyridin-2(1H)-ylidene]acetamide] | 50 | 100 | 80
O=C(N=c1ccccn1Cc1ccc(F)nc1)C(F)(F)Cl [Compound 3-4] | 100 | 100 | 100
O=C(N=c1ccccn1Cc1ccc(F)nc1)C(F)(F)C(F)(F)F [Compound 3-5] | 100 | 55 | 80
Fc1ccc(Cn2ccccc2=NC(=S)C(F)(F)F)cn1 [Compound 3-20] | 55 | 100 | 80
O=C(N=c1ccccn1Cc1ccc(Br)nc1)C(F)F [Compound 4-3] | 100 |  | 100
O=C(N=c1ccccn1Cc1ccc(Br)nc1)C(F)(F)Cl [Compound 4-4] | 100 |  | 100
O=C(N=c1ccccn1Cc1ccc(Br)nc1)C(F)(F)C(F)(F)F [Compound 4-5] | 100 | 100 | 100
FC(F)(F)C(=S)N=c1ccccn1Cc1ccc(Br)nc1 [Compound 4-20] | 100 | 100 | 100
O=C(N=c1ccccn1Cc1cnc(Cl)c(F)c1)C(F)F [Compound 5-3] | 100 |  | 100
O=C(N=c1ccccn1Cc1cnc(Cl)c(F)c1)C(F)(F)Cl [Compound 5-4] | 100 |  | 100
Fc1cc(Cn2ccccc2=NC(=S)C(F)(F)F)cnc1Cl [Compound 5-20] | 100 |  | 100
O=C(N=c1ccccn1Cc1cnc(Cl)nc1)C(F)F [Compound 6-3] | 80 |  | 100
O=C(N=c1ccccn1Cc1cnc(Cl)nc1)C(F)(F)Cl [Compound 6-4] | 90 | 100 | 100

SMILES | Plutella xylostella (Reference Test Example 1), mortality of larvae [1] [%] | Aphis gossypii (Reference Test Example 3), mortality of larvae [2] [%] | Laodelphax striatella (Reference Test Example 18), mortality of larvae [3] [%]
N#Cc1cccn(Cc2ccc(Cl)nc2)c1=NC(=O)C(F)(F)F [Compound 102-2] | 10 | 100 | 100
O=C(N=c1ccccn1Cc1ccc(Cl)nc1)C(F)(F)F [Compound P-212] | 100 | 100 | 100
O=C(N=c1ccccn1Cc1cnc(Cl)s1)C(F)(F)F [Compound P-213] | 100 | 100 | 100
O=C(N=c1ccc(Cl)cn1Cc1ccc(Cl)nc1)C(F)(F)F [Compound P-215] | 100 | 80 | 75
O=C(N=c1ccc(Cl)cn1Cc1cnc(Cl)s1)C(F)(F)F [Compound P-218] | 100 | 60 | 
O=C(N=c1ccc(F)cn1Cc1cnc(Cl)s1)C(F)(F)F [Compound P-219] | 80 | 85 | 
Cc1ccn(Cc2ccc(Cl)nc2)c(=NC(=O)C(F)(F)F)c1 [Compound P-222] |  | 100 | 100
Cc1ccc(=NC(=O)C(F)(F)F)n(Cc2ccc(Cl)nc2)c1 [Compound P-223] |  | 75 | 75
O=C(N=c1ccccn1Cc1ccc(Cl)cc1)C(F)(F)F [Compound P-225] |  | 90 | 
O=C(N=c1ccccn1Cc1cccnc1)C(F)(F)F [Compound P-226] | 60 | 100 | 
O=C(N=c1ccccn1Cc1cnc(Cl)c(Cl)c1)C(F)(F)F [Compound P-230] | 100 | 100 | 
O=C(N=c1cc(F)ccn1Cc1ccc(Cl)nc1)C(F)(F)F [Compound P-232] |  | 80 | 
O=C(N=c1c(F)cccn1Cc1ccc(Cl)nc1)C(F)(F)F [Compound P-233] |  | 100 | 75
O=C(CCl)N=c1ccccn1Cc1ccc(Cl)nc1 [Compound P-236] |  | 100 | 
O=C(N=c1ccccn1Cc1ccc(Cl)nc1)C(Cl)Br (stereo not drawn) [Compound P-240] |  | 100 | 100
O=C(N=c1ccccn1Cc1ccc(Cl)nc1)C(Br)Br [Compound P-241] |  | 100 | 100
O=C(CBr)N=c1ccccn1Cc1ccc(Cl)nc1 [Compound P-244] |  | 100 | 100
